Biological target: T1, endogenous PIP4K2C C-terminally tagged with HiBiT peptide in MOLT-4 cells (Homo sapiens, UniProt Q8TBX8)
T1 construct: to C-terminally tag endogenous PIP4K2C with HiBiT peptide; host or cells: MOLT-4 (CRISPR-Cas9 knock-in clone)
T1 sequence (Q8TBX8 1-421): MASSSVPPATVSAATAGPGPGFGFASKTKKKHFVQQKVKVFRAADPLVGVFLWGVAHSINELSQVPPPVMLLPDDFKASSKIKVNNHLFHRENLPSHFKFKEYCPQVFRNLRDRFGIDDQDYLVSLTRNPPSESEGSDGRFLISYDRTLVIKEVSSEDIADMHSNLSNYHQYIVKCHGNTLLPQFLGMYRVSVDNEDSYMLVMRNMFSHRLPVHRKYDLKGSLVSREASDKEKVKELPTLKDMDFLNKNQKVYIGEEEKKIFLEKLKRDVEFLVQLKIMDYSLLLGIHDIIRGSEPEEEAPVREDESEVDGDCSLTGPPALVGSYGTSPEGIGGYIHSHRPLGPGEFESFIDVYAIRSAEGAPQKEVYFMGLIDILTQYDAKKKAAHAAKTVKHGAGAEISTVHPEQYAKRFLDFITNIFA
Test: HiBiT PIP4K2C degradation assay in MOLT-4 cells
Format: cell-based
Details: 24 hours, 10-point dose response, top concentration 10 micromolar, read-out: HiBIT-degradation MOLT4 PIP4k2C 24 hours DC50
Outline: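 Cells bearing C-terminal HiBiT knock-in were exposed to a 10-point, 3-fold dilution series (top 10 micromolar, duplicate) for 24 h at 37C, 5% CO2. Remaining tagged protein read by lytic HiBiT luminescence; DC50 from Hill-equation fit.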

A DC50 of less than 500 nM was found for `O=C1CCC(Nc2ccc(N3CCC(O)(CC(=O)N4CCC5(CC4)CCN(c4cncc(Nc6ncc(Cl)c(-c7cccc(-c8ccccc8)c7)n6)c4)C5=O)CC3)cc2)C(=O)N1` (stereo not shown) [Compound 180, 3-[4-[4-[2-[2-[5-[[5-chloro-4-(3-phenylphenyl)pyrimidin-2-yl]amino]-3-pyridyl]-1-oxo-2,8-diazaspiro[4.5]decan-8-yl]-2-oxo-ethyl]-4-hydroxy-1-piperidyl]anilino]piperidine-2,6-dione] in this work.

From patent US20260184691A1, “INHIBITORS AND DEGRADERS OF PIP4K PROTEIN” (Larkspur Biosciences, Inc., priority 2022, published 2026)
